What follows are compounds tested against BTK^C481S (Homo sapiens (Human), UniProt Q06187, C481S) (assay: BTK enzyme activity assay (33P-ATP filter-binding)). Conditions: 200 μM ATP; 20 min pre-incubation, 2 h reaction at room temperature; radiometric filter-binding.
Format: biochemical
Description: Assay Example 1: BTK Enzyme Activity Assay
The specific assay process of BTK enzyme activity assay is as follows: Buffer solution: 20 mM hydroxyethyl piperazine ethanesulfonic acid (Hepes) (pH 7.5), 10 mM magnesium chloride, 1 mM ethylenebis(oxyethylenenitrilo)tetraacetic acid (EGTA), 0.02% polyoxyethylene dodecyl ether (Brij35), 0.02 mg/mL BSA, 0.1 mM sodium vanadate (Na3VO4), 2 mM dithiothreitol (DTT), 1% DMSO, 200 μM adenosine triphosphate (ATP). • 1. The substrate was prepared in freshly prepared reaction buffer; • 2. The required cofactor was added to the above-mentioned substrate solution; • 3. The kinase BTK^C481S sis was added to the above-mentioned substrate solution and mix well; • 4. The compound dissolved in DMSO was added to the kinase reaction mixture through Echo550 (Acoustic technology; nanolite range), and the mixture was incubated at room temperature for 20 minutes; • 5. ^33P-ATP (specific activity of radioactivity is 10 μCi/μL) was added to the reaction mixture to initiate the reaction; • 6. The mixture was incubated at room temperature for 2 hours; • 7. The radioactivity was detected by filter-binding method; • 8. Kinase activity data represented the percentage of remaining kinase activity in the assay sample compared to the vehicle (dimethyl sulfoxide) reaction.

Chain of BTK^C481S (Q06187 whole entry C481S): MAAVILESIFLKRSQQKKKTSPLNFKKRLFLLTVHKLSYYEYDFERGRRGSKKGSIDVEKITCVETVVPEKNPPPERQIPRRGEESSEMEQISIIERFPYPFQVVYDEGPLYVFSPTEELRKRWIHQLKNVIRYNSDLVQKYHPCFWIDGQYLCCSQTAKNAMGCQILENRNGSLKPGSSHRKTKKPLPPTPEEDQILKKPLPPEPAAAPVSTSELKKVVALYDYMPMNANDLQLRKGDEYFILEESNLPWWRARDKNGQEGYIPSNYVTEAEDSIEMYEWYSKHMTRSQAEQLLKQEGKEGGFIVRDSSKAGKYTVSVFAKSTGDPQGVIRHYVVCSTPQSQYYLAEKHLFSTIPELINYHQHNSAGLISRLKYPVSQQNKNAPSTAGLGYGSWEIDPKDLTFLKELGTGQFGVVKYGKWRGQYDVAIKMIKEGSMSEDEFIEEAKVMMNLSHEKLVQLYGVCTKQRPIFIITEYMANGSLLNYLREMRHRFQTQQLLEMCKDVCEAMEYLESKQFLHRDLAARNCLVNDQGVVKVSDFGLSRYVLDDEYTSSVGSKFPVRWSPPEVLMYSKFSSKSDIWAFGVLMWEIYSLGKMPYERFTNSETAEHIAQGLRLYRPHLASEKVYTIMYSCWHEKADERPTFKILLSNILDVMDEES

| Structure (SMILES) | IC50 |
| --- | --- |
| N#Cc1cnc2[nH]cc(C(=O)c3ccc(Oc4ccccc4F)cc3Cl)c2c1N[C@@H]1CC[C@@H](CO)OC1 [Compound 2] | 11.7 nM |
| CO[C@@H]1C[C@@H](CO)OC[C@@H]1Nc1c(C#N)cnc2[nH]cc(C(=O)c3ccc(Oc4ccccc4)cc3Cl)c12 [Compound 3] | 74.2 nM |
| O=C(c1ccc(Oc2ccccc2)cc1Cl)c1c[nH]c2ncc(F)c(N[C@@H]3CC[C@@H](CO)OC3)c12 [Compound 5] | 8.9 nM |

The remaining compounds from weak to strong by IC50, led by results:

| IC50 | Structure (SMILES) |
| --- | --- |
| 58.9 nM | N#Cc1cnc2[nH]cc(C(=O)c3ccc(Oc4cccc(F)c4)cc3Cl)c2c1N[C@@H]1CC[C@@H](CO)OC1 [Compound 1] |
| 7.4 nM | N#Cc1cnc2[nH]cc(C(=O)c3ccc(Oc4ccccc4)cc3Cl)c2c1N[C@@H]1CC[C@@H](CO)OC1 [Compound 4] |

Source: patent US20240002377A1, “PYRROLOPYRIDINE COMPOUND AND APPLICATION THEREOF” (MEDSHINE DISCOVERY INC., priority 2020, published 2024)
